{"source": "patent US20240165109A1", "about": "“Methods of Treatment with Selective CB2 Receptor Agonists” (Arena Pharmaceuticals, Inc., priority 2021, published 2024)", "key": {"rat CB2 receptors": {"molecular_target": "T1, rat CB2 receptors (Rattus norvegicus, UniProt Q9QZN9)", "T1 sequence (Q9QZN9 1-360)": "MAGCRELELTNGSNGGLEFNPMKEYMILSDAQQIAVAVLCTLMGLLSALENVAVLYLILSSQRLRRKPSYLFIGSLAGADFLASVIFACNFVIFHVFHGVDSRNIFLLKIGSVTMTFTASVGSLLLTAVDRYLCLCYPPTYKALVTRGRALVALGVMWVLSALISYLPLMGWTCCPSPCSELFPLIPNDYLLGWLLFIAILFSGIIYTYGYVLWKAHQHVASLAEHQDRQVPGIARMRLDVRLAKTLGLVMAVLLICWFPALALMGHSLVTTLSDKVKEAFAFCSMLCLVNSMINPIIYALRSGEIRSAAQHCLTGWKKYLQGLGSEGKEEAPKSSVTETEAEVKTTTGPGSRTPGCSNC", "assay": "CB2 receptor internalization efficacy relative to CP55,940 (rat)", "format": "cell-based", "excerpt": "(§1) Methods of treating pain, including visceral pain with APD371 are described in US patent application publication no. 2020-0078358, which is herein incorporated by reference in its entirety."}, "[1]": {"system": "painful peripheral diabetic neuropathy", "assay": "painful peripheral diabetic neuropathy model", "conditions": "in vivo", "excerpt": "as §1"}, "osteoarthritis pain": {"system": "osteoarthritis pain", "assay": "osteoarthritis pain model", "format": "in vivo", "excerpt": "as §1"}, "human CB2 receptor [2]": {"molecular_target": "T2, human CB2 receptor (Homo sapiens, UniProt P34972)", "T2 sequence (P34972 whole entry)": "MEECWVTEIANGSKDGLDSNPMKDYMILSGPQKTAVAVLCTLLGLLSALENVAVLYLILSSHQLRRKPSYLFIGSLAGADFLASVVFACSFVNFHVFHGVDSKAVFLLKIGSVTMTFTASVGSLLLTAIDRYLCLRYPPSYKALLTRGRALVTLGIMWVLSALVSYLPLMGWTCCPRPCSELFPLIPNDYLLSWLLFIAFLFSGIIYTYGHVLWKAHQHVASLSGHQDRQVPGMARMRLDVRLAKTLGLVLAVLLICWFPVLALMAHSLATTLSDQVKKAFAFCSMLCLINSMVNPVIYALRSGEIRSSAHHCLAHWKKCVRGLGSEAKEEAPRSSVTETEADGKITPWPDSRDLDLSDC", "assay": "selectivity for human CB2 receptor versus human CB1 receptor", "conditions": "human CB2 vs human CB1", "excerpt": "as §1"}, "[3]": {"system": "subjects with irritable bowel syndrome experiencing abdominal pain", "conditions": "50 mg tid, week 12, subgroup with baseline AAPS >= 6.5 (moderate to severe pain)"}, "[4]": {"system": "paclitaxel-induced neuropathic pain", "assay": "paclitaxel-induced neuropathic pain model", "conditions": "in vivo", "excerpt": "as §1"}, "human CB2 receptor [5]": {"molecular_target": "T2, human CB2 receptor", "assay": "CB2 receptor internalization efficacy relative to CP55,940 (human)", "format": "cell-based", "excerpt": "as §1"}}}
{"smiles": "CC(C)(C)[C@@H](CO)NC(=O)c1nn(-c2c[n+]([O-])ccn2)c2c1C[C@@H]1C[C@H]21", "note": "[Compound A, (1aS,5aS)-2-(4-Oxy-pyrazin-2-yl)-1a,2,5,5a-tetrahydro-1H-2,3-diaza-cyclopropa[a]pentalene-4-carboxylic acid ((S)-1-Hydroxymethyl-2,2-dimethyl-propyl)-amide]", "values": [{"measurement": "receptor internalization efficacy relative to CP55,940", "setting": "rat CB2 receptors", "result": 105, "unit": "%"}, {"measurement": "efficacy in model of painful peripheral diabetic neuropathy", "setting": "[1]", "result": "sustained efficacy"}, {"measurement": "efficacy in model of osteoarthritis pain", "setting": "osteoarthritis pain; in vivo", "result": "sustained efficacy"}, {"measurement": "duration of in vivo efficacy following dosing", "setting": "osteoarthritis pain; osteoarthritis pain model, despite rapidly declining plasma concentrations", "result": "maintained in vivo efficacy for four hours following dosing"}, {"measurement": "selectivity for the human CB2 receptor versus the human CB1 receptor", "setting": "human CB2 receptor [2]", "result": "> 1,000 fold"}, {"measurement": "reduction in AAPS from baseline", "setting": "[3]", "result": 3.93, "unit": "points"}, {"measurement": "reduction in AAPS compared to placebo", "setting": "[3]; p=0.01", "result": 1.64, "unit": "points"}, {"measurement": "efficacy in model of paclitaxel-induced neuropathic pain", "setting": "[4]", "result": "sustained efficacy"}, {"measurement": "receptor internalization efficacy relative to CP55,940", "setting": "human CB2 receptor [5]", "result": 96, "unit": "%"}]}
